Data taken from patent US11839679B2, “Gamma-diketones for treatment and prevention of aging skin and wrinkles” (BioSplice Therapeutics, Inc., priority 2014, dated 2023).

Tested on: fine lines, wrinkles in the outer canthus of the eyes (crow's feet area)
Assay: Panelist self-assessment questionnaire, Example 1
Type: in vivo, human
Set-up: key to Q2 appearance of my skin around either of my eyes, Score: 1: Better; 2: Little better; 3: Same; 4: Little worse; 5: Worse
Details: for Q3 how do you feel about the treated area surrounding your eyes and the appearance of wrinkles, % Responders Score 3: Score 3 = Neither satisfied or dissatisfied; for Q2 appearance of my skin around either of my eyes, % Responders Score 3: Score 3 = Same; for Q4 any discomfort, other than slight tingling, in the treated area during the study, % Responders Score 3: Score 3 = Yes, occasional discomfort lasting more than one hour; for Q1 My wrinkles in the eye area have improved, % Responders Score 4: Score 4 = Disagree; for Q3 how do you feel about the treated area surrounding your eyes and the appearance of wrinkles, % Responders Score 4: Score 4 = Dissatisfied; for Q2 appearance of my skin around either of my eyes, % Responders Score 4: Score 4 = Little worse; for Q4 any discomfort, other than slight tingling, in the treated area during the study, % Responders Score 4: Score 4 = Yes, every day lasting less than an hour; for Q1 My wrinkles in the eye area have improved, % Responders Score 5: Score 5 = Strongly disagree; for Q3 how do you feel about the treated area surrounding your eyes and the appearance of wrinkles, % Responders Score 5: Score 5 = Very Dissatisfied; for Q2 appearance of my skin around either of my eyes, % Responders Score 5: Score 5 = Worse; for Q4 any discomfort, other than slight tingling, in the treated area during the study, % Responders Score 5: Score 5 = Yes, everyday lasting more than an hour
Experimental: Three groups of women were recruited to evaluate and compare the efficacy of three anti-aging test products (targeting the periorbital eye area) intended to reduce the appearance of fine lines, wrinkles in the outer canthus of the eyes (crow's feet area) over a 12 week period. Wrinkle assessment was conducted instrumentally using a Visioscan image analysis system. Effectiveness of the test product was evaluated using panelist self-assessment via questionnaire responses comprised of 3-4 questions (Q1, Q2, Q3 & Q4). Each stage in the progression of treatments was photographically documented using a High Resolution Scientifically Matched Photography technique. Image analysis was utilized to quantify changes in fine lines and crow's feet condition observed in the Scientifically Matched Photographs.
Subject Selection: • Number: Six subjects (two per group) to complete the study. • Sex: Females • Race: Caucasian/Asian/Hispanic • Age Range: 40 through 60 years old
Test samples: • Topical 0.15% of Compound #222 in Oil (a 50/50 mixture of • Propylene Glycol Dicaprylate/Dicaprate and Caprylic/Capric Triglyceride) (Cohort 1) • Topical 0.15% of Compound #222 in PEG400 (Cohort 2) • Topical 0.05% of Compound #222 in PEG400 (Cohort 3)
All subjects were instructed to use the test material once a day, as part of their daily skin care routine. Immediately following baseline evaluations, the subjects were issued the product with the following instructions:
GROUP 1—Compound #222 Topical 0.15% in oil (Cohort 1): The subjects were instructed to hold the bottle at an angle such that the roller-ball was at bottom and apply the roller-ball to the periorbital area, including the crow's feet area, 2-3 times, starting from the area under the eye (and above the cheekbone) and moving up towards the outer tip of the eye-brow. After 2-3 rolls, they were able to see wetness on the treated area. This procedure was repeated for the other eye.
GROUPS 2 & 3 Compound #222 Topical 0.15% in PEG (Cohort 2) & Compound #222 Topical 0.05% in PEG (Cohort 3): The subjects were instructed to hold the dispenser upright with one hand and with the tip of the index finger on the pump (similar to holding a spray container), pour a small amount of the product into the palm of their other hand by pumping once or twice. The product was then applied on to the periorbital area, including the crow's feet area, of both eyes with their index finger.
[…] After acclimating to ambient conditions, High Resolution Scientifically Matched Photographs were be taken and biophysical measurements (Surface Evaluation of Living Skin via Visioscan) were repeated using the standard template to identify test sites on the face. In addition (during the acclimation period) all participants were be asked to fill out a self-assessment questionnaire.
The source data was Visioscan and PhotoGrammetrix Image Analysis readings along with subjective assessments, which were totaled and reported as average scores. Photographs were placed side by side as to compare the photographs of before and after application of the test product in the eye area. Wrinkle reduction analysis source data consisted of crow's feet area quantification in relative units (px), collected at baseline and, the week 2, 4, 8 and 12 evaluations. The data obtained via Visioscan and from PhotoGrammetrix Image Analysis was quoted as % differences from baseline at each of the previously described time points. A paired t-test analysis was conducted in order to compare the results of post test product application measurements to baseline measurements where applicable. Statistical significance was established if p≤(α=0.05) was calculated.

[1] = Day 7, Topical 0.05% in PEG (Cohort 3)
[2] = Day 7, Topical 0.15% in Oil (Cohort 1)
[3] = Day 7, Topical 0.15% in PEG (Cohort 2)
[4] = Day 14, Topical 0.05% in PEG (Cohort 3)
[5] = Day 14, Topical 0.15% in Oil (Cohort 1)
[6] = Day 14, Topical 0.15% in PEG (Cohort 2)

O=C(CCC(=O)c1ccc2c(c1)OCO2)c1ccccc1 [#222]
2: Q2 appearance of my skin around either of my eyes, Score (Subject #2, Day 7, Topical 0.15% in Oil (Cohort 1)) | Q2 appearance of my skin around either of my eyes, Score (Subject #2, Day 14, Topical 0.15% in Oil (Cohort 1)) | Q2 appearance of my skin around either of my eyes, Score (Subject #3, Day 7, Topical 0.15% in PEG (Cohort 2)) | Q2 appearance of my skin around either of my eyes, Score (Subject #3, Day 14, Topical 0.15% in PEG (Cohort 2)) | Q2 appearance of my skin around either of my eyes, Score (Subject #6, Day 7, Topical 0.05% in PEG (Cohort 3)) | Q2 appearance of my skin around either of my eyes, Score (Subject #6, Day 14, Topical 0.05% in PEG (Cohort 3))
0%: Q3 how do you feel about the treated area surrounding your eyes and the appearance of wrinkles, % Responders Score 3 [4] | Q3 how do you feel about the treated area surrounding your eyes and the appearance of wrinkles, % Responders Score 3 [6] | Q2 appearance of my skin around either of my eyes, % Responders Score 3 [1] | Q2 appearance of my skin around either of my eyes, % Responders Score 3 [4] | Q4 any discomfort, other than slight tingling, in the treated area during the study, % Responders Score 3 [1] | Q4 any discomfort, other than slight tingling, in the treated area during the study, % Responders Score 3 [2] | Q4 any discomfort, other than slight tingling, in the treated area during the study, % Responders Score 3 [3] | Q4 any discomfort, other than slight tingling, in the treated area during the study, % Responders Score 3 [4] | Q4 any discomfort, other than slight tingling, in the treated area during the study, % Responders Score 3 [5] | Q4 any discomfort, other than slight tingling, in the treated area during the study, % Responders Score 3 [6] | Q1 My wrinkles in the eye area have improved, % Responders Score 4 [1] | Q1 My wrinkles in the eye area have improved, % Responders Score 4 [2] | Q1 My wrinkles in the eye area have improved, % Responders Score 4 [4] | Q3 how do you feel about the treated area surrounding your eyes and the appearance of wrinkles, % Responders Score 4 [1] | Q3 how do you feel about the treated area surrounding your eyes and the appearance of wrinkles, % Responders Score 4 [2] | Q3 how do you feel about the treated area surrounding your eyes and the appearance of wrinkles, % Responders Score 4 [3] | Q3 how do you feel about the treated area surrounding your eyes and the appearance of wrinkles, % Responders Score 4 [4] | Q3 how do you feel about the treated area surrounding your eyes and the appearance of wrinkles, % Responders Score 4 [5] | Q2 appearance of my skin around either of my eyes, % Responders Score 4 [1] | Q2 appearance of my skin around either of my eyes, % Responders Score 4 [2] | Q2 appearance of my skin around either of my eyes, % Responders Score 4 [3] | Q2 appearance of my skin around either of my eyes, % Responders Score 4 [4] | Q2 appearance of my skin around either of my eyes, % Responders Score 4 [5] | Q2 appearance of my skin around either of my eyes, % Responders Score 4 [6] | Q4 any discomfort, other than slight tingling, in the treated area during the study, % Responders Score 4 [1] | Q4 any discomfort, other than slight tingling, in the treated area during the study, % Responders Score 4 [2] | Q4 any discomfort, other than slight tingling, in the treated area during the study, % Responders Score 4 [3] | Q4 any discomfort, other than slight tingling, in the treated area during the study, % Responders Score 4 [4] | Q4 any discomfort, other than slight tingling, in the treated area during the study, % Responders Score 4 [5] | Q1 My wrinkles in the eye area have improved, % Responders Score 5 [1] | Q1 My wrinkles in the eye area have improved, % Responders Score 5 [3] | Q1 My wrinkles in the eye area have improved, % Responders Score 5 [4] | Q1 My wrinkles in the eye area have improved, % Responders Score 5 [5] | Q1 My wrinkles in the eye area have improved, % Responders Score 5 [6] | Q3 how do you feel about the treated area surrounding your eyes and the appearance of wrinkles, % Responders Score 5 [1] | Q3 how do you feel about the treated area surrounding your eyes and the appearance of wrinkles, % Responders Score 5 [2] | Q3 how do you feel about the treated area surrounding your eyes and the appearance of wrinkles, % Responders Score 5 [3] | Q3 how do you feel about the treated area surrounding your eyes and the appearance of wrinkles, % Responders Score 5 [4] | Q3 how do you feel about the treated area surrounding your eyes and the appearance of wrinkles, % Responders Score 5 [5] | Q3 how do you feel about the treated area surrounding your eyes and the appearance of wrinkles, % Responders Score 5 [6] | Q2 appearance of my skin around either of my eyes, % Responders Score 5 [1] | Q2 appearance of my skin around either of my eyes, % Responders Score 5 [2] | Q2 appearance of my skin around either of my eyes, % Responders Score 5 [3] | Q2 appearance of my skin around either of my eyes, % Responders Score 5 [4] | Q2 appearance of my skin around either of my eyes, % Responders Score 5 [5] | Q2 appearance of my skin around either of my eyes, % Responders Score 5 [6] | Q4 any discomfort, other than slight tingling, in the treated area during the study, % Responders Score 5 [1] | Q4 any discomfort, other than slight tingling, in the treated area during the study, % Responders Score 5 [2] | Q4 any discomfort, other than slight tingling, in the treated area during the study, % Responders Score 5 [3] | Q4 any discomfort, other than slight tingling, in the treated area during the study, % Responders Score 5 [4] | Q4 any discomfort, other than slight tingling, in the treated area during the study, % Responders Score 5 [5] | Q4 any discomfort, other than slight tingling, in the treated area during the study, % Responders Score 5 [6]
50%: Q3 how do you feel about the treated area surrounding your eyes and the appearance of wrinkles, % Responders Score 3 [1] | Q3 how do you feel about the treated area surrounding your eyes and the appearance of wrinkles, % Responders Score 3 [2] | Q3 how do you feel about the treated area surrounding your eyes and the appearance of wrinkles, % Responders Score 3 [3] | Q3 how do you feel about the treated area surrounding your eyes and the appearance of wrinkles, % Responders Score 3 [5] | Q2 appearance of my skin around either of my eyes, % Responders Score 3 [2] | Q2 appearance of my skin around either of my eyes, % Responders Score 3 [3] | Q2 appearance of my skin around either of my eyes, % Responders Score 3 [5] | Q2 appearance of my skin around either of my eyes, % Responders Score 3 [6] | Q1 My wrinkles in the eye area have improved, % Responders Score 4 [3] | Q1 My wrinkles in the eye area have improved, % Responders Score 4 [5] | Q1 My wrinkles in the eye area have improved, % Responders Score 4 [6] | Q3 how do you feel about the treated area surrounding your eyes and the appearance of wrinkles, % Responders Score 4 [6] | Q4 any discomfort, other than slight tingling, in the treated area during the study, % Responders Score 4 [6] | Q1 My wrinkles in the eye area have improved, % Responders Score 5 [2]
3: Q2 appearance of my skin around either of my eyes, Score (Subject #1, Day 7, Topical 0.15% in Oil (Cohort 1)) | Q2 appearance of my skin around either of my eyes, Score (Subject #1, Day 14, Topical 0.15% in Oil (Cohort 1)) | Q2 appearance of my skin around either of my eyes, Score (Subject #4, Day 7, Topical 0.15% in PEG (Cohort 2)) | Q2 appearance of my skin around either of my eyes, Score (Subject #4, Day 14, Topical 0.15% in PEG (Cohort 2))
1: Q2 appearance of my skin around either of my eyes, Score (Subject #5, Day 7, Topical 0.05% in PEG (Cohort 3)) | Q2 appearance of my skin around either of my eyes, Score (Subject #5, Day 14, Topical 0.05% in PEG (Cohort 3))
